Source: BigSolDB 2.1

O=C(O)c1cccnc1Nc1cccc(C(F)(F)F)c1
solubility (mole fraction)
Conditions	288.15 K	293.15 K	298.15 K	303.15 K	308.15 K	313.15 K	318.15 K	323.15 K	328.15 K
in MTBE	0.0428	0.0471	0.0505	0.0549	0.0591	0.0663	0.073	0.08	0.0854
in acetone	0.0273	0.0296	0.0315	0.034	0.037	0.0418	0.048	0.053	0.0572
in acetonitrile	–	0.00125	0.0018	0.00235	0.00319	0.00437	0.00595	0.00745	0.00898
in cyclohexane	0.00268	0.00379	0.00512	0.00674	0.00887	0.0114	0.0137	0.0158	0.0182
in diisopropyl ether	0.00814	0.0119	0.0146	0.0183	0.022	0.0262	0.0303	0.0357	0.0424
in ethanol	0.00748	0.00873	0.00935	0.0113	0.0133	0.0153	0.0177	0.0197	0.0211
in ethyl acetate	0.0243	0.0261	0.0279	0.0308	0.0346	0.0393	0.0439	0.0494	0.0544
in isopropanol	0.00751	0.00844	0.00941	0.0107	0.0131	0.0152	0.0179	0.0209	0.0235
in isopropyl acetate	0.0228	0.0264	0.029	0.0324	0.0372	0.0435	0.05	0.0564	0.0637
in methanol	0.00655	0.00766	0.00862	0.00967	0.0107	0.0118	0.0135	0.0151	0.0171
in n-heptane	0.00171	0.00276	0.00404	0.00562	0.00726	0.00951	0.0121	0.0145	0.0172
in n-hexane	0.00145	0.00256	0.00382	0.00539	0.00678	0.00896	0.011	0.0131	0.0155
in n-propanol	0.00879	0.00999	0.011	0.0129	0.0147	0.0174	0.0202	0.0232	0.0266
in toluene	–	0.00154	0.00242	0.00395	0.00532	0.0073	0.00991	0.0133	0.0172
